# Where a name gives a salt, the structure may show the parent alone.
# Legend:
# sodium channel = test: Guanidine Influx Assay (In Vitro Assay); format: cell-based, human or rat; details: known cell line that expresses a sodium channel; read-out: IC50 Activity Level
# From the text: This example describes an in vitro assay for testing and profiling test agents against human or rat sodium channels stably expressed in cells of either an endogenous or recombinant origin. The assay is also useful for determining the IC-50 of a sodium channel blocking compound. The assay is based on the guanidine flux assay described by Reddy, N. L., et al., J. Med. Chem. (1998), 41(17):3298-302.
# The guanidine influx assay is a radiotracer flux assay used to determine ion flux activity of sodium channels in a high-throughput microplate-based format. The assay uses ^14C-guanidine hydrochloride in combination with various known sodium channel modulators, to assay the potency of test agents. Potency is determined by an IC-50 calculation. Selectivity is determined by comparing potency of the compound for the channel of interest to its potency against other sodium channels (also called ‘selectivity profiling’).
# Each of the test agents is assayed against cells that express the channels of interest. Voltage gated sodium channels are either TTX sensitive or insensitive. This property is useful when evaluating the activities of a channel of interest when it resides in a mixed population with other sodium channels. The following Table 1 summarizes cell lines useful in screening for a certain channel activity in the presence or absence of TTX.
# Cells expressing the channel of interest are grown according to the supplier or in the case of a recombinant cell in the presence of selective growth media such as G418 (Gibco/Invitrogen). The cells are disassociated from the culture dishes with an enzymatic solution (1×) Trypsin/EDTA (Gibco/Invitrogen) and analyzed for density and viability using haemocytometer (Neubauer). Disassociated cells are washed and resuspended in their culture media then plated into Scintiplates (Beckman Coulter Inc.) (approximately 100,000 cells/well) and incubated at 37° C./5% CO2. for 20-24 hours. After an extensive wash with Low sodium HEPES-buffered saline solution (LNHBSS) (150 mM Choline Chloride, […] (Sigma), 1 mM Calcium Chloride, 5 mM Potassium Chloride, 1 mM Magnesium Chloride, 10 mM Glucose) agents diluted with LNHBSS are added to each well. (Varying concentrations of test agent may be used). The activation/radiolabel mixture contains aconitine (Sigma), and ^14C-guanidine hydrochloride (ARC).
# After loading the cells with test agent and activation/radiolabel mixture, the Scintiplates are incubated at ambient temperature. Following the incubation, the Scintplates are extensively washed with LNHBSS supplemented with guanidine (Sigma). The Scintiplates are dried and then counted using a Wallac MicroBeta TriLux (Perkin-Elmer Life Sciences). The ability of the test agent to block sodium channel activity is determined by comparing the amount of ^14C-guanidine present inside the cells expressing the different sodium channels.
# IC-50 value of a test agent for a specific sodium channel may be determined using the above general method. IC-50 may be determined using a 3,8,10,12 or 16 point curve in duplicate or triplicate with a starting concentration of 1, 5 or 10 μM diluted serially with a final concentration reaching the sub-nanomolar, nanomolar and low micromolar ranges. Typically the mid-point concentration of test agent is set at 1 μM, and sequential concentrations of half dilutions greater or smaller are applied (e.g. 0.5 μM; […] and 0.25 μM; 10 μM and 0.125 μM; 20 μM etc.). The IC-50 curve is calculated using the 4 Parameter Logistic Model or Sigmoidal Dose-Response Model formula (fit=(A+((B−A)/(1+((C/x)̂D)))).
IC50 (sodium channel) [µM],melting point,SMILES
≥ 10,232 to 236 °C,"CC(C)c1nc2ccccn2c(=O)c1-c1ccc(N[C@@H]2CCN(C(=O)OC(C)(C)C)C2)cc1 (stereo in doubt) [Example 3.6, tert-butyl 3-({4-[2-(1-methylethyl)-4-oxo-4H-pyrido[1,2-a]pyrimidin-3-yl]phenyl}amino)pyrrolidine-1-carboxylate]"
≥ 10,162 to 168 °C,"CCCCc1nc2ccccn2c(=O)c1-c1ccc(N[C@@H]2CCN(C(=O)OC(C)(C)C)C2)cc1C [Example 3.10, (R)-tert-butyl 3-{[4-(2-butyl-4-oxo-4H-pyrido[1,2-a]pyrimidin-3-yl)-3-methylphenyl]amino}pyrrolidine-1-carboxylate]"
≥ 10,102 to 104 °C,"COc1nc2ccccn2c(=O)c1-c1ccc(NC2CCN(C(=O)OC(C)(C)C)C2)cc1 (centres unmarked) [Example 3.19, tert-butyl 3-{[4-(2-methoxy-4-oxo-4H-pyrido[1,2-a]pyrimidin-3-yl)phenyl]amino}pyrrolidine-1-carboxylate]"
≥ 10,187 to 190 °C,"CCCNc1nc2ccccn2c(=O)c1-c1ccc(NC2CCN(C(=O)OC(C)(C)C)C2)cc1 (centres unmarked) [Example 3.21, tert-butyl 3-({4-[4-oxo-2-(propylamino)-4H-pyrido[1,2-a]pyrimidin-3-yl]phenyl}amino)pyrrolidine-1-carboxylate]"
≥ 10,210 to 212 °C,"CC(C)Nc1nc2ccccn2c(=O)c1-c1ccc(NC2CCN(C(=O)OC(C)(C)C)C2)cc1 (centres unmarked) [Example 3.22, tert-butyl 3-[(4-{2-[(1-methylethyl)amino]-4-oxo-4H-pyrido[1,2-a]pyrimidin-3-yl}phenyl)amino]pyrrolidine-1-carboxylate]"
≥ 10,–,"CCCCc1nc2ccccn2c(=O)c1-c1cccc(NC2CCNC2)c1 (centres unmarked) [Example 7.4, 2-butyl-3-[3-(pyrrolidin-3-ylamino)phenyl]-4H-pyrido[1,2-a]pyrimidin-4-one hydrochloride]"
≥ 10,–,"CC(C)c1nc2ccccn2c(=O)c1-c1ccc(NC2CCNC2)cc1 (centres unmarked) [Example 7.5, 2-(1-methylethyl)-3-[4-(pyrrolidin-3-ylamino)phenyl]-4H-pyrido[1,2-a]pyrimidin-4-one hydrochloride]"
≥ 10,–,"CC(C)CCc1nc2ccccn2c(=O)c1-c1ccc(N[C@@H]2CCNC2)cc1 [Example 7.6, (R)-2-isopentyl-3-(4-(pyrrolidin-3-ylamino)phenyl)-4H-pyrido[1,2-a]pyrimidin-4-one hydrochloride]"
0.1 to 1,–,"O=c1c(-c2ccc(N[C@@H]3CCNC3)cc2)c(CCC2CC2)nc2ccccn12 [Example 7.7, (R)-2-(2-cyclopropylethyl)-3-(4-(pyrrolidin-3-ylamino)phenyl)-4H-pyrido[1,2-a]pyrimidin-4-one hydrochloride]"
≥ 10,–,"CCCNc1nc2ccccn2c(=O)c1-c1ccc(NC2CCNC2)cc1 (centres unmarked) [Example 7.8, 2-(propylamino)-3-[4-(pyrrolidin-3-ylamino)phenyl]-4H-pyrido[1,2-a]pyrimidin-4-one hydrochloride]"
≥ 10,–,"CC(C)Nc1nc2ccccn2c(=O)c1-c1ccc(NC2CCNC2)cc1 (centres unmarked) [Example 7.9, 2-[(1-methylethyl)amino]-3-[4-(pyrrolidin-3-ylamino)phenyl]-4H-pyrido[1,2-a]pyrimidin-4-one hydrochloride]"
≥ 10,–,"CC(C)Nc1nc2ccccn2c(=O)c1-c1ccc(N[C@@H]2CCNC2)cc1 [Example 7.10, (R)-2-[(1-methylethyl)amino]-3-{4-[pyrrolidin-3-ylamino]phenyl}-4H-pyrido[1,2-a]pyrimidin-4-one hydrochloride]"
≥ 10,–,"O=c1c(-c2ccc(N[C@@H]3CCNC3)cc2)c(N2CCCC2)nc2ccccn12 [Example 7.11, (R)-2-pyrrolidin-1-yl-3-{4-[pyrrolidin-3-ylamino]phenyl}-4H-pyrido[1,2-a]pyrimidin-4-one hydrogen chloride]"
≥ 10,–,"CCCCc1nc2ccccn2c(=O)c1-c1ccc2c(c1)CCN2C1CCNC1 (centres unmarked) [Example 7.12, 2-butyl-3-(1-(pyrrolidin-3-yl)indolin-5-yl)-4H-pyrido[1,2-a]pyrimidin-4-one hydrochloride]"
≥ 10,–,"CCCCc1nc2ccccn2c(=O)c1-c1ccc(N2CCNCC2)nc1 [Example 7.13, 2-butyl-3-(6-piperazin-1-ylpyridin-3-yl)-4H-pyrido[1,2-a]pyrimidin-4-one hydrochloride]"
≥ 10,–,"CCCOc1nc2ccccn2c(=O)c1-c1ccc(N[C@@H]2CCNC2)cc1 [Example 9.1, (R)-2-propoxy-3-(4-(pyrrolidin-3-ylamino)phenyl)-4H-pyrido[1,2-a]pyrimidin-4-one trifluoroacetate]"

# Second part, the compound before the results:
SMILES,IC50 (sodium channel) [µM],melting point
"CC(C)c1nc2ccccn2c(=O)c1-c1ccc(Cl)cc1 [Example 1.5, 3-(4-chlorophenyl)-2-(1-methylethyl)-4H-pyrido[1,2-a]pyrimidin-4-one]",≥ 10,98 to 100 °C
"CCCCc1nc2ccccn2c(=O)c1-c1ccc(N)cc1 [Example 1.14, 2-butyl-3-(4-aminophenyl)-4H-pyrido[1,2-a]pyrimidin-4-one]",0.1 to 1,95 to 97 °C
"CCCCc1nc2ccccn2c(=O)c1-c1ccc(NC(=O)OC(C)(C)C)cc1 [Example 1.15, tert-butyl 4-(2-butyl-4-oxo-4H-pyrido[1,2-a]pyrimidin-3-yl)phenylcarbamate]",≥ 10,132 to 135 °C
"COc1nc2ccccn2c(=O)c1-c1ccc(Cl)cc1 [Example 1.24, 3-(4-chlorophenyl)-2-methoxy-4H-pyrido[1,2-a]pyrimidin-4-one]",≥ 10,149 to 151 °C
"CCCCc1nc2ccccn2c(=O)c1-c1ccc(NC(=O)[C@@H]2CCCN2C(=O)OC(C)(C)C)cc1 [Example 5, (S)-tert-butyl 2-{[4-(2-butyl-4-oxo-4H-pyrido[1,2-a]pyrimidin-3-yl)phenyl]carbamoyl}-pyrrolidine-1-carboxylate]",≥ 10,179 to 187 °C
"CCCCc1nc2ccccn2c(=O)c1-c1ccc(N[C@@H]2CCNC2)cc1.Cl [Example 8, (R)-2-butyl-3-(4-(pyrrolidin-3-ylamino)phenyl)-4H-pyrido[1,2-a]pyrimidin-4-one hydrochloride]",1 to 10,171 to 174 °C
"COc1nc2ccccn2c(=O)c1-c1ccc(NC2CCNC2)cc1 (centres unmarked) [Example 9, 2-methoxy-3-[4-(pyrrolidin-3-ylamino)phenyl]-4H-pyrido[1,2-a]pyrimidin-4-one trifluoroacetate]",≥ 10,–
"CCCCc1nc2ccccn2c(=O)c1-c1ccc(O)cc1 [Example 11, 2-butyl-3-(4-hydroxyphenyl)-4H-pyrido[1,2-a]pyrimidin-4-one]",≥ 10,160 °C (dec.)
"CCCCc1nc2ccccn2c(=O)c1-c1ccc(OS(=O)(=O)C(F)(F)F)cc1 [Example 12, 4-(2-butyl-4-oxo-4H-pyrido[1,2-a]pyrimidin-3-yl)phenyl trifluoromethanesulfonate]",≥ 10,–
"CCCCc1nc2ccc(Cl)cn2c(=O)c1-c1ccc(O)cc1 [Example 13, 2-butyl-7-chloro-3-(4-hydroxyphenyl)-4H-pyrido[1,2-a]pyrimidin-4-one]",≥ 10,–
"CCCCc1nc2ccccn2c(=O)c1-c1ccc(O[C@@H]2CCNC2)cc1 [Example 15, (R)-2-butyl-3-{4-[pyrrolidin-3-yloxy]phenyl}-4H-pyrido[1,2-a]pyrimidin-4-one hydrochloride]",≥ 10,–
"CCCCc1nc2ccccn2c(=O)c1-c1ccc(NC(=O)[C@@H]2CCCN2)cc1.Cl [Example 18, (S)—N-[4-(2-butyl-4-oxo-4H-pyrido[1,2-a]pyrimidin-3-yl)phenyl]prolinamide hydrochloride]",≥ 10,179 to 187 °C

# — patent publication US20080194616A1, “PYRIDOPYRIMIDINONE COMPOUNDS USEFUL IN TREATING SODIUM CHANNEL-MEDIATED DISEASES OR CONDITIONS” (Xenon Pharmaceuticals Inc., priority 2007, published 2008)
